Measured values as given in patent US8952024B2, “Herbicidal pyrimidone derivatives” (E I du Pont de Nemours and Company, priority 2009, dated 2015).

How the values were obtained:
Format in all cases: in vivo
[1] = system: velvetleaf (Abutilon theophrasti); experiment: Test B pre-/postemergence plant response; settings: for Velvetleaf plant response rating (0 to 100 scale): 62 g ai/ha, postemergence, 0 is no effect, 100 is complete control, 13 to 15 days; for Plant response rating, Velvetleaf: Postemergence, scale 0 to 100 (0 no effect, 100 complete control)
Outline: (§1)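 Pre-em in loam/sand; post-em at 1–4 leaf (2–18 cm) in peat mix. Solvent + surfactant formulation. Greenhouse 13–15 d; visual % control vs untreated, 0–100.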

[2] = system: woolly cupgrass (Eriochloa villosa); experiment: Test B pre-/postemergence plant response; settings: for Cupgrass, Woolly plant response rating (0 to 100 scale): 62 g ai/ha, 0 is no effect, 13 to 15 days
Outline: as §1

[3] = system: ragweed (common ragweed, Ambrosia elatior); experiment: Test B pre-/postemergence plant response; settings: for Ragweed plant response rating (0 to 100 scale): 62 g ai/ha, postemergence, 0 is no effect, 100 is complete control, 13 to 15 days; for Plant response rating, Ragweed: Postemergence, scale 0 to 100 (0 no effect, 100 complete control)
Outline: as §1

[4] = system: bermudagrass (Cynodon dactylon); experiment: Test B pre-/postemergence plant response; settings: for Bermudagrass plant response rating (0 to 100 scale): 62 g ai/ha, 0 is no effect, 13 to 15 days
Outline: as §1

[5] = system: blackgrass (Alopecurus myosuroides); experiment: Test B pre-/postemergence plant response; settings: for Blackgrass plant response rating (0 to 100 scale): 62 g ai/ha, 0 is no effect, 13 to 15 days
Outline: as §1

[6] = system: corn (Zea mays); experiment: Test B pre-/postemergence plant response; settings: for Corn plant response rating (0 to 100 scale): 62 g ai/ha, 0 is no effect, 13 to 15 days
Outline: as §1

[7] = system: Surinam grass (Brachiaria decumbens); experiment: Test B pre-/postemergence plant response; settings: for Plant response rating, Surinam Grass: Postemergence, scale 0 to 100 (0 no effect, 100 complete control)
Outline: as §1

[8] = system: Italian ryegrass (Lolium multiflorum); experiment: Test B pre-/postemergence plant response; settings: for Ryegrass, Italian plant response rating (0 to 100 scale): 62 g ai/ha, postemergence, 0 is no effect, 100 is complete control, 13 to 15 days; for Plant response rating, Ryegrass, Italian: Postemergence, scale 0 to 100 (0 no effect, 100 complete control)
Outline: as §1

[9] = system: lambsquarters (Chenopodium album); experiment: Test B pre-/postemergence plant response; settings: for Lambsquarters plant response rating (0 to 100 scale): 62 g ai/ha, 0 is no effect, 13 to 15 days
Outline: as §1

[10] = system: yellow nutsedge (Cyperus esculentus); experiment: Test B pre-/postemergence plant response; settings: for Nutsedge, Yellow plant response rating (0 to 100 scale): 62 g ai/ha, 0 is no effect, 13 to 15 days
Outline: as §1

[11] = system: large crabgrass (Digitaria sanguinalis); experiment: Test B pre-/postemergence plant response; settings: for Crabgrass, Large plant response rating (0 to 100 scale): 62 g ai/ha, 0 is no effect, 13 to 15 days
Outline: as §1

[12] = system: soybean (Glycine max); experiment: Test B pre-/postemergence plant response; settings: for Soybean plant response rating (0 to 100 scale): 62 g ai/ha, postemergence, 0 is no effect, 100 is complete control, 13 to 15 days; for Plant response rating, Soybean: Postemergence, scale 0 to 100 (0 no effect, 100 complete control)
Outline: as §1

[13] = system: wild oat (Avena fatua); experiment: Test B pre-/postemergence plant response; settings: for Oat, Wild plant response rating (0 to 100 scale): 62 g ai/ha, 0 is no effect, 13 to 15 days
Outline: as §1

[14] = system: johnsongrass (Sorghum halepense); experiment: Test B pre-/postemergence plant response; settings: for Johnsongrass plant response rating (0 to 100 scale): 62 g ai/ha, 0 is no effect, 13 to 15 days
Outline: as §1

[15] = system: winter barley (Hordeum vulgare); experiment: Test B postemergence plant response; settings: for Barley plant response rating (0 to 100 scale): 62 g ai/ha, 0 is no effect, 13 to 15 days
Outline: (§2)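 Plants at the 1- to 4-leaf stage (2 to 18 cm tall), grown in pots of peat moss/vermiculite medium with wetting agent and starter nutrients, received postemergence applications of test chemicals. After 13 to 15 days in a greenhouse, injury was rated visually against untreated controls on a 0 (no effect) to 100 (complete control) scale.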

[16] = system: canarygrass (Phalaris minor); experiment: Test B postemergence plant response; settings: for Canarygrass plant response rating (0 to 100 scale): 62 g ai/ha, 0 is no effect, 13 to 15 days
Outline: as §2

[17] = system: windgrass (Apera spica-venti); experiment: Test B postemergence plant response; settings: for Windgrass plant response rating (0 to 100 scale): 62 g ai/ha, postemergence, 0 is no effect, 100 is complete control, 13 to 15 days; for Plant response rating, Windgrass: Postemergence, 125 g ai/ha, scale 0 to 100 (0 no effect, 100 complete control)
Outline: as §2

[18] = system: chickweed (Stellaria media); experiment: Test B postemergence plant response; settings: for Chickweed plant response rating (0 to 100 scale): 62 g ai/ha, 0 is no effect, 13 to 15 days
Outline: as §2

[19] = postemergence, 100 is complete control
[20] = Postemergence, 125 g ai/ha, scale 0 to 100 (0 no effect, 100 complete control)
[21] = Postemergence, 250 g ai/ha, scale 0 to 100 (0 no effect, 100 complete control)
[22] = 31 g ai/ha, postemergence, scale 0 to 100, 0 is no effect, 100 is complete control

## O=C1CCCC(O)=C1C(=O)c1cnc(-c2cccs2)n(CC2CCCO2)c1=O (stereo not shown) [Compound 109]
[1]
  Velvetleaf plant response rating (0 to 100 scale): 98
[1]; 125 g ai/ha
  Plant response rating, Velvetleaf: 100
[1]; 250 g ai/ha
  Plant response rating, Velvetleaf: 100
[2]; [19]
  Cupgrass, Woolly plant response rating (0 to 100 scale): 60
[2]; [20]
  Plant response rating, Cupgrass, Woolly: 60
[2]; [21]
  Plant response rating, Cupgrass, Woolly: 75
[3]
  Ragweed plant response rating (0 to 100 scale): 95
[3]; 125 g ai/ha
  Plant response rating, Ragweed: 95
[3]; 250 g ai/ha
  Plant response rating, Ragweed: 98
[4]; [22]
  Plant response rating, Bermudagrass: 70
[4]; [19]
  Bermudagrass plant response rating (0 to 100 scale): 85
[4]; [20]
  Plant response rating, Bermudagrass: 90
[4]; [21]
  Plant response rating, Bermudagrass: 95
[5]; [22]
  Plant response rating, Blackgrass: 0
[5]; [19]
  Blackgrass plant response rating (0 to 100 scale): 5
[5]; [20]
  Plant response rating, Blackgrass: 40
[5]; [21]
  Plant response rating, Blackgrass: 50
[6]; [22]
  Plant response rating, Corn: 0
[6]; [19]
  Corn plant response rating (0 to 100 scale): 15
[6]; [20]
  Plant response rating, Corn: 60
[6]; [21]
  Plant response rating, Corn: 60
[7]; 62 g ai/ha, postemergence, 0 is no effect, 100 is complete control, 13 to 15 days
  Surinam Grass plant response rating (0 to 100 scale): 65
[7]; 125 g ai/ha
  Plant response rating, Surinam Grass: 65
[7]; 250 g ai/ha
  Plant response rating, Surinam Grass: 80
[8]
  Ryegrass, Italian plant response rating (0 to 100 scale): 0
[8]; 125 g ai/ha
  Plant response rating, Ryegrass, Italian: 5
[8]; 250 g ai/ha
  Plant response rating, Ryegrass, Italian: 40
[9]; [22]
  Plant response rating, Lambsquarters: 98
[9]; [19]
  Lambsquarters plant response rating (0 to 100 scale): 98
[9]; [20]
  Plant response rating, Lambsquarters: 100
[9]; [21]
  Plant response rating, Lambsquarters: 100
[10]; [19]
  Nutsedge, Yellow plant response rating (0 to 100 scale): 65
[10]; [20]
  Plant response rating, Nutsedge, Yellow: 75
[10]; [21]
  Plant response rating, Nutsedge, Yellow: 80
[11]; [22]
  Plant response rating, Crabgrass, Large: 65
[11]; [19]
  Crabgrass, Large plant response rating (0 to 100 scale): 75
[11]; [20]
  Plant response rating, Crabgrass, Large: 75
[11]; [21]
  Plant response rating, Crabgrass, Large: 85
[12]
  Soybean plant response rating (0 to 100 scale): 95
[12]; 125 g ai/ha
  Plant response rating, Soybean: 98
[12]; 250 g ai/ha
  Plant response rating, Soybean: 100
[13]; [22]
  Plant response rating, Oat, Wild: 0
[13]; [19]
  Oat, Wild plant response rating (0 to 100 scale): 0
[13]; [20]
  Plant response rating, Oat, Wild: 30
[13]; [21]
  Plant response rating, Oat, Wild: 40
[14]; [22]
  Plant response rating, Johnsongrass: 5
[14]; [19]
  Johnsongrass plant response rating (0 to 100 scale): 30
[14]; [20]
  Plant response rating, Johnsongrass: 50
[14]; [21]
  Plant response rating, Johnsongrass: 75
[15]; [22]
  Plant response rating, Barley: 0
[15]; [19]
  Barley plant response rating (0 to 100 scale): 0
[15]; [20]
  Plant response rating, Barley: 5
[15]; [21]
  Plant response rating, Barley: 5
[16]; [22]
  Plant response rating, Canarygrass: 0
[16]; [19]
  Canarygrass plant response rating (0 to 100 scale): 0
[16]; [20]
  Plant response rating, Canarygrass: 30
[16]; [21]
  Plant response rating, Canarygrass: 45
[17]
  Windgrass plant response rating (0 to 100 scale): 40
  Plant response rating, Windgrass: 60
[18]; [22]
  Plant response rating, Chickweed: 90
[18]; [19]
  Chickweed plant response rating (0 to 100 scale): 98
[18]; [20]
  Plant response rating, Chickweed: 98
[18]; [21]
  Plant response rating, Chickweed: 100

## COCCn1c(-c2ccco2)ncc(C(=O)C2=C(O)CCCC2=O)c1=O [Compound 111]
[1]
  Velvetleaf plant response rating (0 to 100 scale): 98
[1]; 125 g ai/ha
  Plant response rating, Velvetleaf: 100
[1]; 250 g ai/ha
  Plant response rating, Velvetleaf: 100
[2]; [22]
  Plant response rating, Cupgrass, Woolly: 40
[2]; [19]
  Cupgrass, Woolly plant response rating (0 to 100 scale): 50
[2]; [20]
  Plant response rating, Cupgrass, Woolly: 75
[2]; [21]
  Plant response rating, Cupgrass, Woolly: 75
[3]
  Ragweed plant response rating (0 to 100 scale): 95
[3]; 125 g ai/ha
  Plant response rating, Ragweed: 98
[3]; 250 g ai/ha
  Plant response rating, Ragweed: 98
[4]; [22]
  Plant response rating, Bermudagrass: 95
[4]; [19]
  Bermudagrass plant response rating (0 to 100 scale): 100
[4]; [20]
  Plant response rating, Bermudagrass: 100
[4]; [21]
  Plant response rating, Bermudagrass: 100
[5]; [22]
  Plant response rating, Blackgrass: 5
[5]; [19]
  Blackgrass plant response rating (0 to 100 scale): 5
[5]; [20]
  Plant response rating, Blackgrass: 25
[5]; [21]
  Plant response rating, Blackgrass: 40
[6]; [22]
  Plant response rating, Corn: 10
[6]; [19]
  Corn plant response rating (0 to 100 scale): 45
[6]; [20]
  Plant response rating, Corn: 55
[6]; [21]
  Plant response rating, Corn: 60
[7]; 125 g ai/ha
  Plant response rating, Surinam Grass: 70
[7]; 250 g ai/ha
  Plant response rating, Surinam Grass: 80
[8]
  Ryegrass, Italian plant response rating (0 to 100 scale): 0
[8]; 125 g ai/ha
  Plant response rating, Ryegrass, Italian: 0
[8]; 250 g ai/ha
  Plant response rating, Ryegrass, Italian: 5
[9]; [22]
  Plant response rating, Lambsquarters: 98
[9]; [19]
  Lambsquarters plant response rating (0 to 100 scale): 98
[9]; [20]
  Plant response rating, Lambsquarters: 100
[9]; [21]
  Plant response rating, Lambsquarters: 100
[10]; [22]
  Plant response rating, Nutsedge, Yellow: 65
[10]; [19]
  Nutsedge, Yellow plant response rating (0 to 100 scale): 75
[10]; [20]
  Plant response rating, Nutsedge, Yellow: 80
[10]; [21]
  Plant response rating, Nutsedge, Yellow: 85
[11]; [22]
  Plant response rating, Crabgrass, Large: 70
[11]; [19]
  Crabgrass, Large plant response rating (0 to 100 scale): 75
[11]; [20]
  Plant response rating, Crabgrass, Large: 80
[11]; [21]
  Plant response rating, Crabgrass, Large: 85
[12]
  Soybean plant response rating (0 to 100 scale): 80
[12]; 125 g ai/ha
  Plant response rating, Soybean: 95
[12]; 250 g ai/ha
  Plant response rating, Soybean: 98
[13]; [22]
  Plant response rating, Oat, Wild: 0
[13]; [19]
  Oat, Wild plant response rating (0 to 100 scale): 0
[13]; [20]
  Plant response rating, Oat, Wild: 0
[13]; [21]
  Plant response rating, Oat, Wild: 10
[14]; [22]
  Plant response rating, Johnsongrass: 10
[14]; [19]
  Johnsongrass plant response rating (0 to 100 scale): 15
[14]; [20]
  Plant response rating, Johnsongrass: 20
[14]; [21]
  Plant response rating, Johnsongrass: 40
[15]; [22]
  Plant response rating, Barley: 0
[15]; [19]
  Barley plant response rating (0 to 100 scale): 0
[15]; [20]
  Plant response rating, Barley: 5
[15]; [21]
  Plant response rating, Barley: 30
[16]; [22]
  Plant response rating, Canarygrass: 0
[16]; [19]
  Canarygrass plant response rating (0 to 100 scale): 0
[16]; [20]
  Plant response rating, Canarygrass: 0
[16]; [21]
  Plant response rating, Canarygrass: 15
[17]
  Windgrass plant response rating (0 to 100 scale): 30
  Plant response rating, Windgrass: 35
[18]; [22]
  Plant response rating, Chickweed: 95
[18]; [19]
  Chickweed plant response rating (0 to 100 scale): 100
[18]; [20]
  Plant response rating, Chickweed: 100
[18]; [21]
  Plant response rating, Chickweed: 100
